Consider 13 molecules from patent US7189760B2, “Physiological cooling compositions containing highly purified ethyl ester of N-[[5-methyl-2-(1-methylethyl) cyclohexyl] carbonyl]glycine” (Millennium Specialty Chemicals, priority 2004, dated 2007).

Series [1] is described as follows: visual and organoleptic test of aqueous solution of the product. The series is classed as in vivo. The note with it: 25 ppm aqueous solution. The source says: (§1) Further, the aqueous solutions of products for organoleptic tests were obtained by dissolving appropriate amounts of the products in dipropylene glycol DPG and adding the solution in DPG to an appropriate amount of water.

Series [2] is described as follows: comparison of cooling strength to WS-3 in oral application. Conditions: for cooling strength relative to WS-3 (times stronger): aqueous solutions, vs 10 ppm WS-3. The series is classed as in vivo. Here is the method:
as §1
A comparison basis aqueous solution of WS-3 (compound 5) was prepared containing 10 ppm concentration of WS-3.
Aqueous solutions were prepared containing various concentrations of the purified compound 10: 2 ppm, 3 ppm, 4 ppm, 5 ppm, and higher. These solutions were tested in oral application in comparison to the basis solution of 10 ppm of WS-3.
Aqueous solutions were prepared containing various concentrations of the purified compound 10: 2 ppm, 3 ppm, 3.5 ppm, 4 ppm, 5 ppm, and higher. These solutions were tested in oral application in comparison to the basis solution of 10 ppm of WS-3.

For series [3] the following is noted: cited from earlier work; for sensitivity threshold (corrected data): J. Soc. Cosmet. Chem., 1978, vol. 29, pp. 185–200.
The conditions of series [4]: lower threshold = stronger coolant; data of U.S. Pat. Nos. 4,060,091 etc.; cited from earlier work.
The next series can be described thus: volatility. The series is classed as physicochemical. Conditions: compared with menthol.
Series [5] is described as follows: sensitivity threshold (cooling strength) of N-monosubstituted p-menthane-3-carboxamides, prior-art patents. It counts as in vivo. Conditions: from patent thresholds 0.2 vs 0.3 μg. The source says:
With specific reference to structure 6, substituent “X” is commonly selected from the lower linear or branched alkyl substituents, functionally substituted alkyl substituents, or aryl substituents. To that end, U.S. Pat. Nos. 4,060,091; 4,136,163; 4,150,052; 4,178,459; 4,193,936; and 4,226,988, the entire disclosures of which are hereby incorporated by reference for all purposes, give a comparison of cooling strengths of certain N-monosubstituted p-menthane-3-carboxamides numerically expressed as sensitivity thresholds in μg, wherein a lower threshold value correlates to a stronger coolant effect. Of the compared compounds, the only commercially used N-monosubstituted p-menthane-3-carboxamide compound is the WS-3 coolant, having a sensitivity threshold of 0.3 μg.

Take `CCOC(=O)CNC(=O)C1CC(C)CCC1C(C)C` (stereo not drawn) [Inventive Example 2, ethyl ester of N-[[5-methyl-2-(1-methylethyl)cyclohexyl]carbonyl]glycine]: the tingling/cooling sensation result in series [1] is recorded as “very strong tingling/cooling sensation”. In the case of `CCOC(=O)CNC(=O)C1CC(C)CCC1C(C)C` (stereo not drawn) [Inventive Example 3, ethyl ester of N-[[5-methyl-2-(1-methylethyl)cyclohexyl]carbonyl]glycine], the “cooling effect compared to basis solution of 10 ppm WS-3” value was “approximately equal cooling effect” in series [2] (3.5 ppm aqueous solution); “stronger and longer lasting cooling effect” in series [2] (4 ppm aqueous solution). Besides, in series [2], the “cooling strength relative to WS-3 (times stronger)” value is given as “approximately 3 times”. For the same molecule, the tingling/cooling sensation result in series [1] (listed as Inventive Example 3 (B)) is “extremely strong and pleasant tingling/cooling sensation”. As to `CCOC(=O)CNC(=O)C1CC(C)CCC1C(C)C` (stereo not drawn) [Inventive Example 5, ethyl ester of N-[[5-methyl-2-(1-methylethyl)cyclohexyl]carbonyl]glycine], the tingling/cooling sensation result in series [1] was “very strong tingling/cooling sensation”. Take `CCNC(=O)C1C[C@H](C)CCC1C(C)C` (stereo in doubt) [WS-3, N-ethyl-p-menthane-3-carboxamide, reference compound]: in series [3], the “sensitivity threshold (corrected data)” value is 0.2 µg. In addition, in series [4], the sensitivity threshold is 0.3 µg.

As to `CCOC(=O)CNC(=O)C1CC(C)CCC1C(C)C` (stereo not drawn) [Comparative Synthetic and Organoleptic Example 2 after the a] [ethyl ester of N-[[5-methyl-2-(1-methylethyl)cyclohexyl]carbonyl]glycine, reference compound], in series [1], the tingling/cooling sensation entry is given as “strong tingling/cooling sensation”. Still for that read-out and setting: the same measure for `CCOC(=O)CNC(=O)C1CC(C)CCC1C(C)C` (stereo not drawn) [Inventive Example 4, ethyl ester of N-[[5-methyl-2-(1-methylethyl)cyclohexyl]carbonyl]glycine]: “very strong tingling/cooling sensation”. With `CCOC(=O)CNC(=O)C1CC(C)CCC1C(C)C` (stereo not drawn) [compound 10, ethyl ester of N-[[5-methyl-2-(1-methylethyl)cyclohexyl]carbonyl]glycine], in series [3], the “sensitivity threshold (corrected data)” value is 0.13 µg. In series [3] (from corrected thresholds 0.13 vs 0.2 μg), the “cooling strength relative to compound 5 (times stronger)” value is “approximately 1.5 times”. For the same molecule, in “volatility”, the volatility result is recorded as “much lower volatility than menthol”. The sensitivity threshold in series [4] was 0.2 µg. Also, the “cooling strength relative to WS-3 (times stronger)” value in series [5] amounted to 1.5 times. On to `Cc1ccc(NC(=O)C2CC(C)CCC2C(C)C)cc1O` (stereo not drawn) [compound 8], for which the sensitivity threshold in series [4] is 0.1 µg.

With `CCOC(=O)CNC(=O)C1CC(C)CCC1C(C)C` (stereo not drawn) [Comparative Synthetic and Organoleptic Example 2] [ethyl ester of N-[[5-methyl-2-(1-methylethyl)cyclohexyl]carbonyl]glycine, reference compound], the tingling/cooling sensation result in series [1] is on record as “strong tingling/cooling sensation”.

Turning to `Cc1ccc(NC(=O)C2CC(C)CCC2C(C)C)cc1C` (stereo not drawn) [compound 7], in series [4], the sensitivity threshold was 0.1 µg.

`CCOC(=O)CNC(=O)C1CC(C)CCC1C(C)C` (stereo not drawn) [Inventive Example 1, ethyl ester of N-[[5-methyl-2-(1-methylethyl)cyclohexyl]carbonyl]glycine]: the “cooling effect compared to basis solution of 10 ppm WS-3” value is “approximately equal cooling effect” in series [2] (4 ppm aqueous solution); “stronger and longer lasting cooling effect” in series [2] (5 ppm aqueous solution). The “cooling strength relative to WS-3 (times stronger)” value in series [2] is on record as “approximately 2.5 times”. In series [1], the tingling/cooling sensation entry is “very strong tingling/cooling sensation”. With `CCOC(=O)CNC(=O)C1CC(C)CCC1C(C)C` (stereo not drawn) [Inventive Example 3 (A), ethyl ester of N-[[5-methyl-2-(1-methylethyl)cyclohexyl]carbonyl]glycine], in series [1], the tingling/cooling sensation result is given as “very strong tingling/cooling sensation”. In the case of `CCOC(=O)CNC(=O)C1CC(C)CCC1C(C)C` (stereo not drawn) [Comparative Synthetic and Organoleptic Example 1] [ethyl ester of N-[[5-methyl-2-(1-methylethyl)cyclohexyl]carbonyl]glycine, reference compound], the tingling/cooling sensation result in series [1] is reported as “noticeable tingling/cooling sensation”.
